Measured values as given in US12421252B2, “Spiro (isobenzofuranazetidine) compounds for the treatment of autoimmune disease” (Hoffmann-La Roche Inc., priority 2020, dated 2025).

Target: T1, hTLR9 (Homo sapiens, UniProt Q9NR96)
T1 sequence (Q9NR96 26-1032): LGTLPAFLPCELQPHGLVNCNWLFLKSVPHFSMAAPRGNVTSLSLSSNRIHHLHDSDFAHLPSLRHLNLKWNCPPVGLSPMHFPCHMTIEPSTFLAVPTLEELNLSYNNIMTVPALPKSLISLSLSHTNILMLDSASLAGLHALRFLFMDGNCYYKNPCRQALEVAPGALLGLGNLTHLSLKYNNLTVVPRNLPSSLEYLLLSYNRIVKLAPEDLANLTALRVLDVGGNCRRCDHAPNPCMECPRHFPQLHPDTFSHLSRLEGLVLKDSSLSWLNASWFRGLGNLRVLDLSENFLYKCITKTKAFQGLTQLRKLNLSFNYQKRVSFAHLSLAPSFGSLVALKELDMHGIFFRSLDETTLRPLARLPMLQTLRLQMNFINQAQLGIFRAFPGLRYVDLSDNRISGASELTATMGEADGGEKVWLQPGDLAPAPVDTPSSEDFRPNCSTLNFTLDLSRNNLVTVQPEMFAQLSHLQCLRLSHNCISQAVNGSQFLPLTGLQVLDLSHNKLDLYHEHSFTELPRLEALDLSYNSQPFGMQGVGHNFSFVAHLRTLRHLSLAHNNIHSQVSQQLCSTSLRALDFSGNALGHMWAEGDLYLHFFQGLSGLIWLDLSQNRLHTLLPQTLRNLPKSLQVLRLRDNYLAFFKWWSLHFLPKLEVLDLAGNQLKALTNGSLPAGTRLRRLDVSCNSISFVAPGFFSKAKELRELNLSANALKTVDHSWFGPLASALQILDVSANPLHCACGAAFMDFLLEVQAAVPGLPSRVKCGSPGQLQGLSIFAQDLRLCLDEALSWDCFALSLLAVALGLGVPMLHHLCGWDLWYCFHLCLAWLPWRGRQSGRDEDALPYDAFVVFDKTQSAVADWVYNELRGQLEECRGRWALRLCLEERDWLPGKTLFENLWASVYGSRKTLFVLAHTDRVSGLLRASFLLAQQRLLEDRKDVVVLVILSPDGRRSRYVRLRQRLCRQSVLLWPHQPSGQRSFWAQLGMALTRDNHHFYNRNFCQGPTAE
Assay: HEK293-Blue-hTLR-9 cells assay
Assay type: cell-based
Conditions: HEK293-Blue-hTLR9 cells, ODN2006 stimulation, 20 hrs, SEAP reporter; read-out: HEK/hTLR9 IC50
Source text: HEK293-Blue-hTLR-9 cells assay: A stable HEK293-Blue-hTLR-9 cell line was purchased from InvivoGen (Cat. #: hkb-htlr9, San Diego, California, USA). These cells were originally designed for studying the stimulation of human TLR9 by monitoring the activation of NF-κB. A SEAP (secreted embryonic alkaline phosphatase) reporter gene was placed under the control of the IFN-β minimal promoter fused to five NF-κB and AP-1-binding sites. The SEAP was induced by activating NF-κB and AP-1 via stimulating HEK-Blue hTLR9 cells with TLR9 ligands. Therefore the reporter expression was declined by TLR9 antagonist under the stimulation of a ligand, such as ODN2006 (Cat. #: tlrl-2006-1, Invivogen, San Diego, California, USA), for incubation of 20 hrs. The cell culture supernatant SEAP reporter activity was determined using QUANTI-Blue™ kit (Cat. #: rep-qb1, Invivogen, San Diego, California, USA) at a wavelength of 640 nm, a detection medium that turns purple or blue in the presence of alkaline phosphatase.
HEK293-Blue-hTLR9 cells were incubated at a density of 250,000˜450,000 cells/mL in a volume of 170 μL in a 96-well plate in Dulbecco's Modified Eagle's medium (DMEM) containing 4.5 g/L glucose, 50 U/mL penicillin, […], 2 mM L-glutamine, 10% (v/v) heat-inactivated fetal bovine serum with addition of 20 μL test compound in a serial dilution in the presence of final DMSO at 1% and 10 μL of 20 uM ODN2006 in above DMEM, perform incubation under 37° C. in a CO2 incubator for 20 hrs. Then 20 μL of the supernatant from each well was incubated with 180 μL Quanti-blue substrate solution at 37° C. for 2 h and the absorbance was read at 620-655 nm using a spectrophotometer. The signaling pathway that TLR9 activation leads to downstream NF-κB activation has been widely accepted, and therefore similar reporter assay was modified for evaluating TLR9 antagonist.

| SMILES | IC50 [nM] |
| --- | --- |
| C[C@@H]1CN(c2ccc(C#N)n3ncc(F)c23)C[C@H](CN2CC3(C2)OCc2cc(N4CC5(CN(C)C5)C4)cnc23)O1 [Example 22, 3-fluoro-4-[(2R,6S)-2-methyl-6-[[3-(6-methyl-2,6-diazaspiro[3.3]heptan-2-yl)spiro[5H-furo[3,4-b]pyridine-7,3′-azetidine]-1′-yl]methyl]morpholin-4-yl]pyrazolo[1,5-a]pyridine-7-carbonitrile] | 57 |
| C[C@@H]1CN(c2ccc(C#N)n3ncc(F)c23)C[C@H](CN2CC3(C2)OCc2cc(N4CC(C)(N)C4)ncc23)O1 [Example 24, 4-[(2S,6R)-2-[[6-(3-amino-3-methyl-azetidin-1-yl)spiro[1H-furo[3,4-c]pyridine-3,3′-azetidine]-1′-yl]methyl]-6-methyl-morpholin-4-yl]-3-fluoro-pyrazolo[1,5-a]pyridine-7-carbonitrile] | 86 |
| C[C@@H]1CN(c2ccc(C#N)n3nccc23)C[C@H](CN2CC3(C2)OCc2cc(N4CC(C)(N)C4)ncc23)O1 [Example 25, 4-[(2S,6R)-2-[[6-(3-amino-3-methyl-azetidin-1-yl)spiro[1H-furo[3,4-c]pyridine-3,3′-azetidine]-1′-yl]methyl]-6-methyl-morpholin-4-yl]pyrazolo[1,5-a]pyridine-7-carbonitrile] | 70 |
| C[C@@H]1CN(c2ccc(C#N)n3nccc23)C[C@H](CN2CC3(C2)OCc2cc(N4CC(C)(N)C4)cnc23)O1 [Example 26, 4-[(2S,6R)-2-[[3-(3-amino-3-methyl-azetidin-1-yl)spiro[5H-furo[3,4-b]pyridine-7,3′-azetidine]-1′-yl]methyl]-6-methyl-morpholin-4-yl]pyrazolo[1,5-a]pyridine-7-carbonitrile] | 80 |
| [2H]c1ccc2c(N3C[C@H](CN4CC5(C4)OCc4cc(N6C[C@H]7NCCO[C@@H]7C6)ncc45)O[C@H](C)C3)ccc(C#N)c2n1 [Example 28, 5-[(2S,6R)-2-[[6-[(4aR,7aR)-3,4,4a,5,7,7a-hexahydro-2H-pyrrolo[3,4-b][1,4]oxazin-6-yl]spiro[1H-furo[3,4-c]pyridine-3,3′-azetidine]-1′-yl]methyl]-6-methyl-morpholin-4-yl]-2-deuterio-quinoline-8-carbonitrile] | 160 |
| [2H]c1ccc2c(N3C[C@H](CN4CC5(C4)OCc4cc(N6C[C@@H](N)[C@H](OC)C6)cnc45)O[C@H](C)C3)ccc(C#N)c2n1 [Example 31, 5-[(2S,6R)-2-[[3-[(3R,4R)-3-amino-4-methoxy-pyrrolidin-1-yl]spiro[5H-furo[3,4-b]pyridine-7,3′-azetidine]-1′-yl]methyl]-6-methyl-morpholin-4-yl]-2-deuterio-quinoline-8-carbonitrile] | 79 |
| [2H]c1ccc2c(N3C[C@H](CN4CC5(C4)OCc4cc(N6CC(N)C6)ncc45)O[C@H](C)C3)ccc(C#N)c2n1 [Example 32, 5-[(2S,6R)-2-[[6-(3-aminoazetidin-1-yl)spiro[1H-furo[3,4-c]pyridine-3,3′-azetidine]-1′-yl]methyl]-6-methyl-morpholin-4-yl]-2-deuterio-quinoline-8-carbonitrile] | 244 |
| C[C@@H]1CN(c2ccc(C#N)n3ncc(F)c23)C[C@H](CN2CC3(C2)OCc2cc(N4CC(C)(N)C4)cnc23)O1 [Example 33, 4-[(2S,6R)-2-[[3-(3-amino-3-methyl-azetidin-1-yl)spiro[5H-furo[3,4-b]pyridine-7,3′-azetidine]-1′-yl]methyl]-6-methyl-morpholin-4-yl]-3-fluoro-pyrazolo[1,5-a]pyridine-7-carbonitrile] | 227 |
